From patent US7192617B2, “Whitening agent, skin preparation for external use and cosmetic” (priority 2002, dated 2007) come the findings set out here.

Each structure is given as a SMILES string.

A short description of this assay: Test for measuring DPPH radical scavenging activity. The conditions noted are these: 30 minutes of reaction at 30° C., absorbance at 517 nm; in terms of the evaporation residue. As for the experimental part: 800 μl of a 500 μM DPPH solution was added to the test tube, stirred, and reacted at 30° C. Exactly after 30 minutes of reaction, the absorbance of the sample at 517 nm was measured, using distilled water as a standard. From the measured absorbances, the DPPH radical scavenging ratio was calculated, and the 50% radical scavenging activity (IC50) was obtained. The same procedure was performed with α-tocopherol, which is a known antioxidative component, for measuring the DPPH radical scavenging activity. […] From the measured values, the DPPH radical scavenging ratios were calculated.
(The DPPH test is a chemical assay of radical scavenging.)

Regarding `Cc1c(C)c2c(c(C)c1O)CC[C@@](C)(CCC[C@H](C)CCC[C@H](C)CCCC(C)C)O2` [α-tocopherol], the “50% DPPH radical scavenging activity (IC50)” value turned out to be 0.13 mg/g.
